Where two headings read alike, the source gives them in different places. No end group written: not given here.

From patent publication US20240041976A1, “COMPOSITION AND USE” (priority 2020, published 2024) come the findings set out here.

One experiment concerns MRSA ATCC 33521-lux. The experiment can be described thus: Agar plate spot assay, resistance development (FIG. 4). It counts as cell-based, Staphylococcus aureus. As to conditions: up to 72 h incubation at 37° C. The method, then: Pure GarKS and PenG each at 50 μg, MP1 at 0.1 μg, were applied at the indicated spots. The pictures of the plates were taken after 24, 48 and 72 h of incubation at 37° C. Sections of the inhibition zones on the right show resistance development seen as small white dots (in the inhibition zones of GarKS and MP1).

The next experiment concerns S. aureus LMG3271. As to the kind of experiment: AAMP assay (MIC), single components and formulation mixture. It counts as cell-based, Staphylococcus aureus. As to conditions: for MIC: Staphylococcus aureus, LMG3271, 24 h, read-out: MIC, single component. The procedure, abridged:
(§1)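 Broth microdilution MIC per the AAMP method. The three-component mixture (100 μg PenG, 50 μg GarKS, 2.5 μg MP1 in one well) was compared with each antimicrobial alone on the same plate; synergy was defined by fractional inhibition concentration (FIC).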

A further experiment relates to S. aureus LMG3026. Described as above. As to conditions: for MIC: Staphylococcus aureus, LMG3026, 24 h, read-out: MIC, single component. The format is cell-based, Staphylococcus aureus. The method, boiled down:
as §1

In the next experiment the test system is S. aureus LMG3263. Described as above. It counts as cell-based, Staphylococcus aureus. Particulars: for MIC: Staphylococcus aureus, LMG3263, 24 h, read-out: MIC, single component. The method, boiled down:
as §1

For another experiment, the system named is S. aureus LMG3307. The description is as above. As to conditions: for MIC: Staphylococcus aureus, LMG3307, 24 h, read-out: MIC, single component. The format is cell-based, Staphylococcus aureus. The procedure, abridged: as §1
For a further experiment, the system named is S. aureus LMG3265. The experiment is described as above. The format is cell-based, Staphylococcus aureus. As to conditions: for MIC: Staphylococcus aureus, LMG3265, 24 h, read-out: MIC, single component. The method, boiled down:
as §1

Experiment [1] has as its system lactococci, listeria and enterococci. As to the kind of experiment: MIC against other indicators (data not shown). It counts as cell-based. The method, then: (§2) Antimicrobial activity was measured using the AAMP assay (Wiegand et al., 2008, Nat. Protoc., Vol. 3(2), p 163-175).
The test system of experiment [2] is S. haemolyticus strains 4068-4073. As to the kind of experiment: microbe, parasite or virus in culture. The format is cell-based. Particulars: 5 hour incubation. The method, then: Bacteriocins and antimicrobial assays. K1-EJ and garvicin KS peptides (Gak-A, -B and -C) were synthesized by Pepmic Co., Ltd, China, with >95% purity. These bacteriocins were all solubilized in 0.1% (vol/vol) trifluoracetic acid (TFA; Sigma-Aldrich). Micrococcin P1 was purchased from Cayman Chemical, Michigan, USA with 95% purity and solubilized in a 50% (v/v) mixture of isopropanol (Merck) […] (Sigma-Aldrich) at a stock concentration of 1 mg/ml. Cell growth inhibition assays and antimicrobial synergy determination was performed in line with Example 1.
To investigate whether there was synergy between the three bacteriocins (K1-EJ, GarKS and MP1), a checkboard antimicrobial assay was performed. The selected strains were treated for 5, 24 and 48 h with a range of concentrations of K1-EJ, GarKS and MP1 alone or in different combinations. […] Double combinatorial treatments (GarKS/MP1; K1-EJ/GarKS; K1-EJ/MP1) increased the antimicrobial activity of the bacteriocins. […] This was particularly evident at the 24 and 48 h time-points.

Experiment [3] relates to three MRSA strains (ATCC33591-lux, USA-300 and MRSA 43484). The experiment can be described thus: AAMP assay and checkerboard synergy, summary. It counts as cell-based, Staphylococcus aureus. The protocol:
Briefly, equal amounts of antimicrobial A were applied on microtiter plate 1 in wells A1-H1 and then diluted two-fold to wells 2-12. Similarly, equal amounts of antimicrobial B were applied on microtiter plate 2 in wells A1-A12 and diluted two-fold in wells B-H. Volumes of 50 μl of antimicrobial A from each well of microtiter plate 1 were transferred into microtiter plate 3, except for wells H1-H12. Similarly, the same volumes were transferred from microtiter plate 2 into plate 3, except for wells A1-A8. […] A 50 μl volume of pure broth was added into each well in lines H1-H12 and A1-A8 which were used to estimate MIC values of pure substances (blank).
Three-component synergy was assessed by mixing the three components (100 μg of PenG, 50 μg of GarKS and 2.5 μg of MP1) into one well of a microtiter plate, compared with activity of individual antimicrobials on the same plate.

Experiment [4] deals with S. pseudintermedius MRSP 45. The experiment can be described thus: microbe, parasite or virus in culture. It counts as cell-based, Staphylococcus pseudintermedius. Particulars: Staphylococcus pseudintermedius, MRSP45, MRSP 45, 24 h, read-out: MIC, single component. The method, then:
as §2
(§3) Synergy testing was done with a microtiter plate checkerboard assay as previously described (Orhan et al., 2005, J. Clin. Microbiol., Vol. 43(1), p 140-143). Briefly, equal amounts of antimicrobial A were applied on microtiter plate 1 in wells A1-H1 and then diluted two-fold to wells 2-12. Similarly, equal amounts of antimicrobial B were applied on microtiter plate 2 in wells A1-A12 and diluted two-fold in wells B-H. Volumes of 50 μl of antimicrobial A from each well of microtiter plate 1 were transferred into microtiter plate 3, except for wells H1-H12. Similarly, the same volumes were transferred from microtiter plate 2 into plate 3, except for wells A1-A8. A 100 μl volume of 25 times diluted ON bacterial culture of MRSA was transferred into each well of plate 3. A 50 μl volume of pure broth was added into each well in lines H1-H12 and A1-A8 which were used to estimate MIC values of pure substances (blank).
(§4) Antimicrobial activity was measured using the AAMP assay as described in Example 2.
(§5) Synergy testing was performed as in Example 2.

A further experiment has as its system S. haemoliticus NVH 409. The experiment can be described thus: organism not typed. It counts as cell-based. The protocol:
as §2, §3, §4, §5

For experiment [5], the system named is S. aureus ATTC 33591 biofilm. The experiment can be described thus: LIVE/DEAD biofilm staining, confocal microscopy. As to conditions: data not shown. The format is cell-based, Staphylococcus aureus.
For a further experiment, the system named is S. aureus biofilms. The experiment can be described thus: BOAT followed by CFU counting. It counts as cell-based, Staphylococcus aureus. Particulars: 5 mg/ml garvicin KS, 0.1 mg/ml micrococcin P1, 10 mg/ml penicillin G. The method, then: The procedure for the BOAT assay was repeated as described above except that instead of adding the TTC solution, the antimicrobial-challenged cells were resuspended in TSB and then serially diluted in TSB buffer. Serial dilutions of the bacterial cells were than plated on BHI agar plates and incubated at 37° C. for 24 h. The results were then assessed by direct counting of the developed colonies and the colony forming unit (CFU) was determined.

The mark [6] stands for this setting: triple combination PenG, GarKS and MP1.

Take `C/C=C(\NC(=O)c1csc(-c2csc(-c3ccc4c(n3)-c3csc(n3)[C@H]([C@@H](C)O)NC(=O)c3csc(n3)[C@H](C(C)C)NC(=O)c3csc(n3)/C(=C/C)NC(=O)[C@H]([C@@H](C)O)NC(=O)c3csc-4n3)n2)n1)C(=O)NC[C@@H](C)O` [MP1, micrococcin P1]: in the experiment with MRSA ATCC 33521-lux, the “resistance development on agar plates” value is listed as “resistant colonies of MRSA appeared within the inhibition zones”. In addition, the MIC was above 1.8 µg/mL in the experiment on S. aureus LMG3271; above 1.8 µg/mL in the experiment on S. aureus LMG3026; 1.8 µg/mL with S. aureus LMG3263; 0.9 µg/mL with S. aureus LMG3307; 1.8 µg/mL in the experiment with S. aureus LMG3265; above 2.5 µg/mL in experiment [4] (Table 8). In addition, the MIC in the experiment on S. haemoliticus NVH 409 (S. haemoliticus NVH 409, read-out: MIC, single antimicrobial) is 1.25 µg/mL. Further, the “MIC values, range” value in experiment [1] was in the range of 1 to 10 µg/mL. The MIC50 in experiment [2] (Staphylococcus haemolyticus, STRAINS40684073, read-out: MIC50 values over strains) lay within 0.02 to 0.15 µg/mL. Moreover, in experiment [3] (All three strains), the “MIC of the antimicrobial in comb. with GarKS” value came out at 0.16 µg/mL. Moreover, the “MIC of the component when combined” value in experiment [3] (MP1 with PenG) is 0.16 to 0.3 µg/mL; in experiment [3] (setting [6]), 0.08 µg/mL. For the same molecule, the results for the “reduction of MIC when combined” value in experiment [3] (MP1 with PenG) and in experiment [3] (setting [6]) were 8-16 times and “about 30 times”, respectively. Also, the “MIC of the component when GarKS and MP1 are combined” value in [3] (checkerboard assay) is 0.16 µg/mL.
As for `CC1(C)S[C@@H]2[C@H](NC(=O)Cc3ccccc3)C(=O)N2[C@H]1C(=O)O` [Penicillin G], the LIVE/DEAD staining pattern result in experiment [5] is recorded as “increased resistance”. Also, the MIC in the experiment with S. aureus LMG3271 was below 0.24 µg/mL; in the experiment with S. aureus LMG3026, above 2500 µg/mL; in the experiment on S. aureus LMG3263 it was 125 µg/mL; with S. aureus LMG3307 it was below 0.24 µg/mL; with S. aureus LMG3265 it was 125 µg/mL; in [3] (Staphylococcus aureus, 24 h, All three strains, read-out: MIC, single antimicrobial) it was above 2500 µg/mL. Besides, the MIC in experiment [4] (Table 9) was above 125 µg/mL. Besides, the “MIC of GarKS in comb. antibiotic/GarKS/MP1” value in experiment [3] (All three strains) is 4 µg/mL. In experiment [3] (All three strains), the “MIC of MP1 in comb. antibiotic/GarKS/MP1” value turned out to be 0.08 µg/mL. Moreover, the “MIC of MP1 in comb. with the labelled antibiotic” value in [3] (All three strains) lay in the range of 0.16 to 0.3 µg/mL. Further, the “MIC of the antibiotic in comb. with GarKS and MP1” value in [3] (All three strains) came to 8 µg/mL. For the same molecule, the “MIC of the antibiotic in comb. with MP1” value in experiment [3] (All three strains) lay in the range of 16 to 32 µg/mL. The “MIC of the antimicrobial in comb. with GarKS” value in experiment [3] (All three strains) came out at 16 µg/mL. For the same molecule, the “MIC of the component when combined” value in experiment [3] (GarKS with Amp or PenG) is 16 µg/mL; in experiment [3] (MP1 with PenG), 16 to 32 µg/mL; in experiment [3] (setting [6]), 8 µg/mL. In addition, the “reduction of MIC when combined” value in experiment [3] (MP1 with PenG) is 80-150 times; in experiment [3] (setting [6]), “more than 300 times”. Further, the “synergy with GarKS” value in [3] (checkerboard assay) is listed as “moderate synergy”. The “cell viability, LogCFU after BOAT” value in the experiment on S. aureus biofilms was “reduction in the viability of the non-MRSA strains”.
For the molecule “MKFKFNPTGTIVKKLTQYEINWYKQQYGRYPWERPVA [Hybrid K1-EJ]”, in [2], the “MIC50 values over strains” value was 0.78 µg/mL. The “MIC, single antimicrobial” value in the experiment with S. haemoliticus NVH 409 was above 25 µg/mL. Besides, in the experiment with S. haemoliticus NVH 409 (S. haemoliticus NVH 409), the “MIC of MP1 in comb. with the labelled antimicrobial” value stood at 0.08 µg/mL and the “MIC of the labelled antimicrobial in comb. with MP1” value was determined as 3 µg/mL.

B1: Garvicin KS: three-peptide leaderless bacteriocin (GarA, GarB, GarC; SEQ ID NO:6-8), peptides synthesized (peptide, listed as Lactococcus garvieae)
chain 1: MGAIIKAGAKIVGKGVLGGGASWLGWNVGEKIWK
chain 2: MGAIIKAGAKIIGKGLLGGAAGGATYGGLKKIFG
chain 3: MGAIIKAGAKIVGKGALTGGGVWLAEKLFGGK
For B1, the LIVE/DEAD staining pattern entry in [5] is “increased resistance”. For the same molecule, the “resistance development on agar plates” value in the experiment with MRSA ATCC 33521-lux is “resistant colonies of MRSA appeared within the inhibition zones”. The “MIC, single component” value in the experiment with S. aureus LMG3271 (LMG3271) is 32 µg/mL; in the experiment with S. aureus LMG3026 (LMG3026), 16 µg/mL; with S. aureus LMG3263 (LMG3263), 16 µg/mL; with S. aureus LMG3307 (LMG3307), 32 µg/mL; in the experiment with S. aureus LMG3265 (LMG3265) it was 16 µg/mL. The “MIC values, range” value in experiment [1] was 1 to 20 µg/mL. Further, the “reduction of MIC when combined” value is on record as 4 times in experiment [3] (GarKS with Amp or PenG) and “about 8 times” in [3] (setting [6]). In addition, the “MIC of the component when GarKS and MP1 are combined” value in experiment [3] (checkerboard assay) is 8 µg/mL. Also, the “MIC of the component when combined” value in experiment [3] (setting [6]) turned out to be 4 µg/mL. For the same molecule, the “cell viability, LogCFU after BOAT” value with S. aureus biofilms was “most dramatic reduction in LogCFU levels for all the strains”.
